{
  "source": "paper PMC4099972",
  "about": "“Extracts from New Zealand Undaria pinnatifida Containing Fucoxanthin as Potential Functional Biomaterials against Cancer in Vitro” (Journal of Functional Biomaterials, 2014)",
  "key": {"[1]": {"system": "Hep G2 cell line (hepatocellular carcinoma)", "assay": "MTT cell viability assay, Hep G2", "format": "cell-based", "conditions": "Homo sapiens, HepG2, extract concentrations normalized to fucoxanthin purity, read-out: IC50, growth inhibition", "protocol": "(§1) All cancer cell lines were maintained in tissue culture incubator at 37 °C and 5% carbon dioxide. Cell viability was determined by MTT assay as previously described with a slight modification. Briefly, the optimized seeding cell density was 5000 cells/well for A549 and WiDr, while for Hep G2, Malme-3M, SiHa, NCI-H522, Lovo, SK-N-SH, and MCF-7, the seeding cell density was 10,000 cells/well. Microplate with 96 wells was used for the experiment and each well contained 100 μL of medium with cancer cells. […] All cancer cell lines were cultured in the presence or absence of fucoxanthin extract or standard. […] An aliquot of 20 μL of MTT reagent in phosphate buffer saline at a concentration of 5 mg/mL was added into each well after experiment, and washed with 150 µL of PBS. After incubation for 4 h at 37 °C, the formed MTT-formazan was dissolved in 150 μL DMSO. The viable cell amount was determined by the absorbance at 540 nm using a multiplate-reader (UV-visible FLUOStar Omega Multidetection Microplate Reader, AlphaTech NZ Ltd., Auckland, New Zealand)."}, "[2]": {"system": "A549 cell line (lung carcinoma)", "assay": "MTT cell viability assay, A549", "format": "cell-based", "conditions": "Homo sapiens, extract concentrations normalized to fucoxanthin purity, read-out: IC50, growth inhibition", "protocol": "as §1"}, "[3]": {"system": "WiDr cell line (colon adenocarcinoma)", "assay": "MTT cell viability assay, WiDr", "format": "cell-based", "conditions": "Homo sapiens, extract concentrations normalized to fucoxanthin purity, read-out: IC50, growth inhibition", "protocol": "as §1"}, "[4]": {"system": "NCI-H522 cell line (lung cancer)", "assay": "MTT cell viability assay, NCI-H522", "format": "cell-based", "conditions": "Homo sapiens, extract concentrations normalized to fucoxanthin purity, read-out: IC50, growth inhibition", "protocol": "as §1"}, "[5]": {"system": "SK-N-SH cell line (neuroblastoma)", "assay": "MTT cell viability assay, SK-N-SH", "format": "cell-based", "conditions": "Homo sapiens, extract concentrations normalized to fucoxanthin purity, read-out: IC50, growth inhibition", "protocol": "as §1"}, "[6]": {"system": "Lovo cell line (colon adenocarcinoma)", "assay": "MTT cell viability assay, Lovo", "format": "cell-based", "conditions": "Homo sapiens, extract concentrations normalized to fucoxanthin purity, read-out: IC50, growth inhibition", "protocol": "as §1"}, "[7]": {"system": "MCF-7 cell line (breast adenocarcinoma)", "assay": "MTT cell viability assay, MCF-7", "format": "cell-based", "conditions": "Homo sapiens, MCF7, extract concentrations normalized to fucoxanthin purity, read-out: IC50, growth inhibition", "protocol": "as §1"}, "[8]": {"system": "SiHa cell line (cervix squamous carcinoma)", "assay": "MTT cell viability assay, SiHa", "format": "cell-based, human", "conditions": "extract concentrations normalized to fucoxanthin purity, read-out: IC50, growth inhibition", "protocol": "as §1"}, "[9]": {"system": "Malme-3M cell line (malignant melanoma)", "assay": "MTT cell viability assay, Malme-3M", "format": "cell-based, human", "conditions": "for IC50: Homo sapiens, extract concentrations normalized to fucoxanthin purity, read-out: IC50, growth inhibition", "protocol": "as §1"}, "[10]": {"system": "human dermal fibroblasts (HDFb)", "assay": "MTT cell viability assay, non-cancer HDFb", "format": "cell-based", "conditions": "Fibroblast, extract concentrations normalized to fucoxanthin purity, read-out: IC50, growth inhibition (non-cancer cell line)", "protocol": "(§2) All three cell lines were purchased from Invitrogen NZ Ltd. HDFb was maintained in Dulbecco’s Modified Eagle Medium supplemented with LSGS. HUVEC cells were maintained in Cascade Biologics Medium 200 supplemented with LSGS. HEK293 cells were maintained in RPMI 1640 culture medium supplemented with 1% Penicillin-Streptomycin, 4 mM L-glutamine and 10% of FBS. Cell viability was determined by MTT assay as previously described with a slight modification. Briefly, the optimized seeding cell density was 5000 cells/well for A549 and WiDr, while for Hep G2, Malme-3M, SiHa, NCI-H522, Lovo, SK-N-SH, and MCF-7, the seeding cell density was 10,000 cells/well. Microplate with 96 wells was used for the experiment and each well contained 100 μL of medium with cancer cells. […] All cancer cell lines were cultured in the presence or absence of fucoxanthin extract or standard. […] An aliquot of 20 μL of MTT reagent in phosphate buffer saline at a concentration of 5 mg/mL was added into each well after experiment, and washed with 150 µL of PBS. After incubation for 4 h at 37 °C, the formed MTT-formazan was dissolved in 150 μL DMSO."}, "[11]": {"system": "human umbilical vein endothelial (HUVEC)", "assay": "MTT cell viability assay, non-cancer HUVEC", "format": "cell-based", "conditions": "extract concentrations normalized to fucoxanthin purity, read-out: IC50, growth inhibition (non-cancer cell line)", "protocol": "as §2"}, "[12]": {"system": "human embryonic kidney (HEK293)", "assay": "MTT cell viability assay, non-cancer HEK293", "format": "cell-based", "conditions": "for IC50: Homo sapiens, extract concentrations normalized to fucoxanthin purity, read-out: IC50, growth inhibition (non-cancer cell line)", "protocol": "as §2"}, "[13]": {"system": "all tested cancer cell lines (nine human cancer cell lines)", "assay": "MTT cell viability, all tested cancer cell lines", "format": "cell-based", "conditions": "72 h, read-out: cell viability compared with untreated cell cultures", "protocol": "All nine cancer cell lines were treated with pure fucoxanthin (Sigma) at concentrations of 1.5625, 6.25, 12.5, 25, 50, 80, 100 µM for 24, 48 and 72 h, respectively (Figure 3). There was significant difference between high and low concentrations and between 24, 48 and 72 h treatments (p < 0.05).\nHuman cancer cell lines used in this study were purchased from ATCC (Cryosite Ltd., Sydney, NSW, Australia), including lung carcinoma line A549, colon adenocarcinoma lines WiDr and Lovo, lung cancer line NCI-H522, hepatocellular carcinoma line Hep G2, neuroblastoma line SK-N-SH, breast adenocarcinoma line MCF, cervix squamous line SiHa, and malignant melanoma line Malme-3M. All nine cell lines were maintained in RPMI 1640 culture medium supplemented with 1% Penicillin-Streptomycin, 4 mM L-glutamine and 10% of FBS except Malme-3M (20% FBS). […]\nCell viability was determined by MTT assay as previously described with a slight modification. […]\nPure fucoxanthin standard and all U. pinnatifida fucoxanthin extracts were dissolved in pure ethanol to 5 mM as a stock solution, and the final ethanol concentration was 2% in the culture medium. […] The viable cell amount was determined by the absorbance at 540 nm using a multiplate-reader (UV-visible FLUOStar Omega Multidetection Microplate Reader, AlphaTech NZ Ltd., Auckland, New Zealand). […]"}, "[14]": {"system": "human non-cancer cells", "assay": "MTT cell viability, human non-cancer cells (control study)", "format": "cell-based", "conditions": "1.56 μM", "excerpt": "Three human non-cancer cell lines including human dermal fibroblasts (HDFb), human umbilical vein endothelial (HUVEC) and human embryonic kidney (HEK293) were used to determine in vitro toxicity of pure fucoxanthin and extracts from NZ U. pinnatifida. All three cell lines were purchased from Invitrogen NZ Ltd. HDFb was maintained in Dulbecco’s Modified Eagle Medium supplemented with LSGS. HUVEC cells were maintained in Cascade Biologics Medium 200 supplemented with LSGS. HEK293 cells were maintained in RPMI 1640 culture medium supplemented with 1% Penicillin-Streptomycin, 4 mM L-glutamine and 10% of FBS.\nCell viability was determined by MTT assay as previously described [34] with a slight modification. […] Treatment time was 24, 48 or 72 h.\nPure fucoxanthin standard and all U. pinnatifida fucoxanthin extracts were dissolved in pure ethanol to 5 mM as a stock solution, and the final ethanol concentration was 2% in the culture medium. An aliquot of 20 μL of MTT reagent in phosphate buffer saline at a concentration of 5 mg/mL was added into each well after experiment, and washed with 150 µL of PBS. After incubation for 4 h at 37 °C, the formed MTT-formazan was dissolved in 150 μL DMSO. The viable cell amount was determined by the absorbance at 540 nm using a multiplate-reader (UV-visible FLUOStar Omega Multidetection Microplate Reader, AlphaTech NZ Ltd., Auckland, New Zealand). […]"}, "[15]": {"system": "rats", "set-up": "method as in doi:10.3136/nskkk.55.304", "conditions": "oral, 750 mg/kg for 28 days, purity 95%; cited from earlier work"}, "[16]": {"system": "mice", "set-up": "method as in PMID 22072997", "conditions": "repeated dose of 500 and 1000 mg/kg for 30 day; cited from earlier work"}, "[17]": {"system": "mouse bone marrow cells", "set-up": "method as in PMID 21720124, PMID 21720125", "conditions": "cited from earlier work"}, "[18]": {"conditions": "cited from earlier work"}},
  "note": "Where two headings read alike, the source gives them in different places.",
  "data": [
    {"smiles": "CC(=O)O[C@H]1CC(C)(C)C(=C=C/C(C)=C/C=C/C(C)=C/C=C/C=C(C)/C=C/C=C(\\C)C(=O)C[C@@]23O[C@]2(C)C[C@@H](O)CC3(C)C)[C@](C)(O)C1", "note": "[Pure fucoxanthin, fucoxanthin]", "values": [
      {"measurement": "IC50", "setting": "[1]; Hep G2, 48 h treatment", "value": "58.9 ± 1.23", "unit": "µM"},
      {"measurement": "IC50", "setting": "[1]; Hep G2, 72 h treatment", "value": "25.9 ± 1.69", "unit": "µM"},
      {"measurement": "IC50", "setting": "[2]; A549, 48 h treatment", "value": "44.7 ± 2.26", "unit": "µM"},
      {"measurement": "IC50", "setting": "[2]; A549, 72 h treatment", "value": "25.6 ± 1.07", "unit": "µM"},
      {"measurement": "IC50", "setting": "[3]; 48 h treatment", "value": "42.3 ± 1.25", "unit": "µM"},
      {"measurement": "IC50", "setting": "[3]; 72 h treatment", "value": "25 ± 1.63", "unit": "µM"},
      {"measurement": "IC50", "setting": "[4]; NCI-H522, 48 h treatment", "value": "46.1 ± 1.07", "unit": "µM"},
      {"measurement": "IC50", "setting": "[4]; NCI-H522, 72 h treatment", "value": "24.5 ± 1.58", "unit": "µM"},
      {"measurement": "IC50", "setting": "[5]; 48 h treatment", "value": "52.7 ± 1.07", "unit": "µM"},
      {"measurement": "IC50", "setting": "[5]; 72 h treatment", "value": "31.2 ± 2.62", "unit": "µM"},
      {"measurement": "IC50", "setting": "[6]; 48 h treatment", "value": "39.6 ± 0.94", "unit": "µM"},
      {"measurement": "IC50", "setting": "[6]; 72 h treatment", "value": "21.8 ± 1.17", "unit": "µM"},
      {"measurement": "IC50", "setting": "[7]; MCF-7, 48 h treatment", "value": "44 ± 2.61", "unit": "µM"},
      {"measurement": "IC50", "setting": "[7]; MCF-7, 72 h treatment", "value": "22.5 ± 1.26", "unit": "µM"},
      {"measurement": "IC50", "setting": "[8]; 48 h treatment", "value": 37.8, "unit": "µM"},
      {"measurement": "IC50", "setting": "[8]; Homo sapiens, 48 h, 48 h treatment", "value": "37.6 ± 1.49", "unit": "µM"},
      {"measurement": "IC50", "setting": "[8]; Homo sapiens, 72 h, 72 h treatment", "value": "18.9 ± 2.16", "unit": "µM"},
      {"measurement": "IC50", "setting": "[9]; 48 h treatment", "value": "28 ± 1.36", "unit": "µM"},
      {"measurement": "IC50", "setting": "[9]; 72 h treatment", "value": "17.3 ± 2.65", "unit": "µM"},
      {"measurement": "concentration from which cell viability is significantly decreased", "setting": "[9]; within 24 h", "value": "≥ 50", "unit": "µM"},
      {"measurement": "IC50", "setting": "[10]; 48 h treatment", "value": 32.2, "unit": "µM"},
      {"measurement": "IC50", "setting": "[10]; 72 h treatment", "value": 15.7, "unit": "µM"},
      {"measurement": "IC50", "setting": "[11]; 48 h treatment", "value": 3.98, "unit": "µM"},
      {"measurement": "IC50", "setting": "[11]; 72 h treatment", "value": 3.36, "unit": "µM"},
      {"measurement": "growth inhibition effect on cells", "setting": "[12]; HEK293, 6.25 μM, 24- and 48-h treatment", "value": "no growth inhibition effect"},
      {"measurement": "IC50", "setting": "[12]; HEK293, 48 h treatment", "value": 18.7, "unit": "µM"},
      {"measurement": "IC50", "setting": "[12]; HEK293, 72 h treatment", "value": 7.66, "unit": "µM"},
      {"measurement": "viability at 100 µM", "setting": "[13]", "value": "~20", "unit": "%"},
      {"measurement": "effect on growth of human non-cancer cells", "setting": "[14]", "value": "promote the growth"},
      {"measurement": "toxicity at repeated doses", "setting": "[15]", "value": "did not show obvious toxicity"},
      {"measurement": "histological abnormality in tissues (liver, kidney, spleen, gonadal)", "setting": "[16]", "value": "no abnormality was found"},
      {"measurement": "genotoxic/mutagenic effects", "setting": "[17]", "value": "not found"},
      {"measurement": "50% lethal dose", "setting": "[18]", "value": "more than 2000 mg/kg body weight"}
    ]}
  ]
}
